The record followed here is patent publication US20040024024A1, “Aromatic sulfone hydroxamates and their use as protease inhibitors” (priority 2001, published 2004).

As a reminder, the IC50 is the point on the concentration scale where inhibition reaches its midpoint.

What all share (assay type): biochemical
One experiment deals with T1, Human recombinant MMP-13 (Homo sapiens, UniProt P45452).
T1 construct: made in house; host or cells: baculovirus / insect cells
Kind of experiment: In vitro MMP inhibition, IC50 determination (fluorogenic substrate I). In a few lines: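 Fluorescence at 415 nm (excitation 328 nm) reports Gly-Leu cleavage of 4 μM quenched methoxycoumarin peptide substrate I. Human recombinant MMP-13, activated by trypsin or APMA, was incubated at room temperature with varied inhibitor concentrations in pH 7.5 Tris/NaCl/CaCl2 buffer; IC50 derived from reduced fluorescence.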

Experiment [1] has as its target T2, Human recombinant MMP-14 (Homo sapiens, UniProt P50281).
T2 construct: The catalytic domain enzyme was expressed in E. coli inclusion bodies, solubilized in urea; made in house
The experiment is described as above. The method in brief: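 Catalytic-domain MMP-14, expressed in E. coli and refolded, activated with APMA or trypsin; compounds incubated at room temperature with 4 μM fluorogenic substrate I (MCA-PLGL-Dpa-AR-NH2) in Tris/NaCl/CaCl2 buffer, pH 7.5. Fluorescence at ex 328/em 415 nm; IC50 from loss of fluorescence versus inhibitor concentration.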

For a further experiment, the target named is T3, Human recombinant MMP-1 (Homo sapiens, UniProt P03956).
T3 construct: made in house; host or cells: MMP-1-transfected HT-1080 cells (spent media)
T3 sequence (P03956 100-469): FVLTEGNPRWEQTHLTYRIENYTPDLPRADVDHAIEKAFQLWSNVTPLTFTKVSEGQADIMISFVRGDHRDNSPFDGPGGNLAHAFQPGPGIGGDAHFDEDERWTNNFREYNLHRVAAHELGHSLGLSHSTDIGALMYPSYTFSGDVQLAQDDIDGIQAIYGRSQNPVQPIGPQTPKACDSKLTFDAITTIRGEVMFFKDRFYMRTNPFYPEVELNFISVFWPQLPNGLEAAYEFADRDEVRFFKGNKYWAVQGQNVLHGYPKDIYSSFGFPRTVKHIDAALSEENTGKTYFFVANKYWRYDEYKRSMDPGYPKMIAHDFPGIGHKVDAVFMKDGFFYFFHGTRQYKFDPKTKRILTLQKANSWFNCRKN
Described as above. In a few lines: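 APMA- or trypsin-activated enzyme, purified from spent media of transfected HT-1080 cells, incubated at room temperature with 4 μM MCA-Pro-Leu-Gly-Leu-Dpa-Ala-Arg-NH2 and graded inhibitor in Tris buffer pH 7.5 (10 mM CaCl2, 0.05% Brij). Cleavage read by fluorescence (ex 328/em 415 nm); IC50 from fluorescence reduction versus inhibitor concentration.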

The target in experiment [2] is T2, Human recombinant MMP-14. Nature of the experiment: In vitro MMP inhibition, Ki determination (fluorogenic substrate II). The protocol:
Several hydroxamates and salts thereof were analyzed in in vitro assays to determine their ability to inhibit the MMP cleavage of peptide substrates. Inhibition (Ki) and IC50 constants were calculated from the assayed hydroxamate-MMP interactions.
Human recombinant MMP-1, MMP-2, MMP-9, MMP-13, and MMP-14 were used in this assay. All enzymes were prepared in Assignee's laboratories following usual laboratory procedures. Protocols for the preparation and use of these enzymes are available in the scientific literature. See, e.g., Enzyme Nomenclature (Academic Press, San Diego, Calif., 1992) (and the citations therein). See also, Frije et al., J. Biol. Chem., 26(24), 16766-73 (1994).
The MMP-14 full length cDNA was provided by Dr. Gregory Goldberg of Washington University (St. Louis, Mo.). The catalytic domain enzyme was expressed in E. coli inclusion bodies, solubilized in urea, purified on a preparative […] reverse phase HPLC column, and then refolded in the presence of zinc acetate and purified for use.
All MMPs were activated using 4-aminophenylmercuric acetate (“APMA”, Sigma Chemical, St. Louis, Mo.) or trypsin. MMP-9 also was activated using human recombinant MMP-3 (purified in Assignee's laboratory following standard cloning and purification techniques).
Two fluorogenic, methoxycoumarin-containing polypeptide substrates were used in the MMP inhibition assays:
MCA-ArgProLeuGlyLeuDpaAlaArgGluArgNH2 (II)
Here, “Dpa” is 3-(2,4-dinitrophenyl)-L-2,3-diaminopropionyl group, and “MCA” is 7-methoxycoumarin-4-yl acetyl. Substrate (I) was purchased from Baychem (Redwood City, Calif.), and substrate II was prepared Assignee's laboratory. Substrate I was used in the IC50 determination assays, while substrate II was used in the Ki determination assays. In the absence of MMP inhibitory activity, either substrate is cleaved at the Gly-Leu peptide bond. This cleavage separates the highly fluorogenic peptide from the 2,4-dinitrophenyl quencher, thus resulting in increase of fluorescent intensity.
The stock solutions of the assayed hydroxamates (or salts thereof) were prepared in 1% dimethyl sulfoxide (DMSO). These stock solutions were diluted in Buffer A (100 mM Tris-HCl, 100 mM NaCl, 10 mM CaCl2, 0.05% polyoxyethylene 23 lauryl ether, pH 7.5) to obtain solutions with different hydroxamate concentrations, i.e., assay solutions with different concentrations of the assayed MMP inhibitory compound. The experiment controls contained the same amount of Buffer A/DMSO as the assayed sample, but contained no hydroxamate (or salt thereof).
The assays from which the Ki determinations were made were performed as follows. The assayed hydroxamate samples were incubated in separate wells of untreated white polystyrene plates (Nunc Nalgene International, Rochester, N.Y.), and analyzed on a Tecan SpectraFlour Plus plate reader. The excitation wavelength was 330 nm, and the emission wavelength—420 nm. All samples (assayed hydroxamates and controls) were incubated in separate plate wells at room temperature for 1 hr in the presence of 4 μM of MMP substrate (II). In the absence of MMP inhibitory activity, substrate II was cleaved at the Gly-Leu bond resulting in an increase of relative fluorescence. Inhibition was observed as a reduced rate of this increase in relative fluorescence. The various hydroxamates were analyzed using a single low enzyme concentration with a single substrate concentration fixed at or below the Km. This protocol is a modification of method by Knight et al., FEBS Lett., 296(3), 263-266 (1992). Apparent inhibitory constants were determined by non-linear regression of reaction velocity as a function of inhibitor and enzyme concentration using Morrison's equation, as described by Kuzmic, Anal. Biochem. 286, 45-50 (2000). Modifications were made in the non-linear regression method to allow a common control reaction rate and effective enzyme concentration to be shared between all dose-response relationships on a given assay plate. […]

Where [3] appears, read: substrate (I) 4 μM, room temperature, values not in parenthesis.
Setting [4] is: substrate (II) 4 μM, 1 hr room temperature, apparent Ki, values in parenthesis.

For the compound `O=C(CCCOc1ccc(S(=O)(=O)C2(C(=O)NO)CCOCC2)cc1)Nc1ccc(OC(F)(F)F)cc1` [Example 250], the figures for the half-maximal inhibitory concentration (IC50) at Human recombinant MMP-13 (value outside parenthesis), on Human recombinant MMP-14 [1] (value outside parenthesis) and on Human recombinant MMP-1 (value outside parenthesis) were 0.0003 µM, 7.63 µM and 4.41 µM, respectively. Besides, at Human recombinant MMP-14 [2] (value in parenthesis), the Ki is 1.7 µM.

In the case of `O=C(CCCc1ccc(S(=O)(=O)C2(C(=O)NO)CCOCC2)cc1)c1cccc(-c2ccccc2)c1` [Example 219], the IC50 on Human recombinant MMP-13 (value outside parenthesis) is 0.0004 µM; at Human recombinant MMP-14 [1] (value outside parenthesis), more than 10 µM; at Human recombinant MMP-1 (value outside parenthesis) it was more than 10 µM. Moreover, the Ki on Human recombinant MMP-14 [2] (value in parenthesis) came out at 7.94 µM.

With `O=C(NO)C1(S(=O)(=O)c2ccc(OCCCc3cc(-c4ccc(F)cc4F)cs3)cc2)CCOCC1` [Example 587], the IC50 on Human recombinant MMP-13 (value outside parentheses) is 0.0001 µM; at Human recombinant MMP-14 [1] (value outside parentheses), more than 10 µM; at Human recombinant MMP-1 (value outside parentheses), more than 10 µM. Moreover, the Ki at Human recombinant MMP-14 [2] (value in parentheses) turned out to be 4.15 µM.

For `O=C(NO)C1(S(=O)(=O)c2ccc(OCCCc3cccc(-c4cccnc4)c3)cc2)CCOCC1` [Example 150], the IC50 on Human recombinant MMP-13 (value outside parenthesis) was 0.0006 µM; at Human recombinant MMP-14 [1] (value outside parenthesis), 6.63 µM; on Human recombinant MMP-1 (value outside parenthesis) it was more than 10 µM. In addition, at Human recombinant MMP-14 [2] (value in parenthesis), the Ki was 5.51 µM.

Turning to `Cc1cc(OC(F)(F)F)ccc1NC(=O)CCCOc1ccc(S(=O)(=O)C2(C(=O)NO)CCOCC2)cc1` [Example 229], the IC50 is 0.0017 µM on Human recombinant MMP-13 (value outside parenthesis), more than 10 µM at Human recombinant MMP-14 [1] (value outside parenthesis) and 5.03 µM at Human recombinant MMP-1 (value outside parenthesis). The Ki at Human recombinant MMP-14 [2] (value in parenthesis) amounted to 7.87 µM.

Take `O=C(NO)C1(S(=O)(=O)c2ccc(OCCCn3nnc(-c4ccc(OC(F)(F)F)cc4)n3)cc2)CCN(CC2CC2)CC1` [Example 53]: the figures for the IC50 on Human recombinant MMP-13 (setting [3]), on Human recombinant MMP-14 [1] (setting [3]) and at Human recombinant MMP-1 (setting [3]) were 0.001 µM, more than 10 µM and more than 10 µM, respectively. Moreover, the Ki at Human recombinant MMP-14 [2] (setting [4]) is more than 10 µM.

Turning to `O=C(NO)C1(S(=O)(=O)c2ccc(OCCc3cccc(-c4ccncc4)c3)cc2)CCOCC1` [Example 113], the IC50 is 0.0002 µM at Human recombinant MMP-13 (value outside parenthesis), 7.72 µM at Human recombinant MMP-14 [1] (value outside parenthesis) and more than 10 µM on Human recombinant MMP-1 (value outside parenthesis). For the same compound, the Ki on Human recombinant MMP-14 [2] (value in parenthesis) was determined as 3.48 µM.

`COCCN1CCC(C(=O)NO)(S(=O)(=O)c2ccc(OCCCc3cccc(-c4ccc(F)cc4)c3)cc2)CC1` [Example 140]: the IC50 at Human recombinant MMP-13 (value outside parenthesis) is 0.0005 µM; at Human recombinant MMP-14 [1] (value outside parenthesis), more than 10 µM; on Human recombinant MMP-1 (value outside parenthesis) it was more than 10 µM. The Ki on Human recombinant MMP-14 [2] (value in parenthesis) is more than 10 µM.

`CC(C)C(=O)c1cccc(CCCOc2ccc(S(=O)(=O)C3(C(=O)NO)CCOCC3)cc2)c1` [Example 95]: the IC50 on Human recombinant MMP-13 (value outside parenthesis) was 0.0027 µM; at Human recombinant MMP-14 [1] (value outside parenthesis), more than 10 µM; on Human recombinant MMP-1 (value outside parenthesis), more than 10 µM. On Human recombinant MMP-14 [2] (value in parenthesis), the Ki amounted to 5.41 µM.

For the compound `O=C(CCCOc1ccc(S(=O)(=O)C2(C(=O)NO)CCOCC2)cc1)Nc1ccc(OC(F)(F)F)cc1` [Example 228], the values for the IC50 at Human recombinant MMP-13 (value outside parenthesis), at Human recombinant MMP-14 [1] (value outside parenthesis) and at Human recombinant MMP-1 (value outside parenthesis) were 0.0002 µM, more than 10 µM and 6.87 µM, respectively. Besides, the Ki on Human recombinant MMP-14 [2] (value in parenthesis) worked out at 6.29 µM.

Consider `O=C(NO)C1(S(=O)(=O)c2ccc(OCCCc3ccnc(-c4ccccc4)c3)cc2)CCOCC1` [Example 197], for which the figures for the IC50 on Human recombinant MMP-13 (value outside parenthesis), at Human recombinant MMP-14 [1] (value outside parenthesis) and at Human recombinant MMP-1 (value outside parenthesis) were 0.0005 µM, more than 10 µM and more than 10 µM, respectively. In addition, the Ki at Human recombinant MMP-14 [2] (value in parenthesis) is more than 10 µM.

With `CN(C(=O)CCCOc1ccc(S(=O)(=O)C2(C(=O)NO)CCOCC2)cc1)c1ccc(OC(F)(F)F)cc1` [Example 249], the IC50 on Human recombinant MMP-13 (value outside parenthesis) was 0.00509 µM; at Human recombinant MMP-14 [1] (value outside parenthesis) it was more than 10 µM; at Human recombinant MMP-1 (value outside parenthesis), more than 10 µM. Besides, the Ki at Human recombinant MMP-14 [2] (value in parenthesis) was more than 10 µM.

For `O=C(NO)C1(S(=O)(=O)c2ccc(OCCCc3cccc(Br)c3)cc2)CCOCC1` [Example 154], the IC50 on Human recombinant MMP-13 (value outside parenthesis) is 0.0008 µM; on Human recombinant MMP-14 [1] (value outside parenthesis), 9.12 µM; on Human recombinant MMP-1 (value outside parenthesis) it was more than 10 µM. In addition, at Human recombinant MMP-14 [2] (value in parenthesis), the Ki worked out at 3.91 µM.

In the case of `O=C(NO)C1(S(=O)(=O)c2ccc(OCCCc3nc(-c4ccc(OC(F)(F)F)cc4)no3)cc2)CCOCC1` [Example 31, tetrahydro-N-hydroxy-4-[[4-[3-[3[4-(trifluoromethoxy)phenyl]-1,2,4-oxadiazol-5-yl]propoxy]phenyl]sulfonyl]-2H-pyran-4-carboxamide], the IC50 on Human recombinant MMP-13 (setting [3]) is 0.0021 µM; on Human recombinant MMP-14 [1] (setting [3]), more than 10 µM; on Human recombinant MMP-1 (setting [3]), more than 10 µM. Besides, the Ki on Human recombinant MMP-14 [2] (setting [4]) was more than 10 µM.
